Experimental data reported in US4762852A, “Benzodioxepanne, process for the synthesis thereof and use thereof” (Societe d'Etudes Scientifiques et Industrielles de l'Ile de …, priority 1985, dated 1988).
Read-outs that look alike come from different tables or passages of the source.

Experiments:
rat [1] = assay: cataleptigenic effect, another test; type: in vivo; settings: sc, subcutaneous, read-out: cataleptigenic dose 50
Description: (§1) The cataleptigenic dose 50, as determined in accordance with Arz. Forsch. 12, pp. 964-968 (1962), was 5.3 mg/kg subcutaneously in a rat. Another test gave a value which was slightly higher, 8.5 mg/kg subcutaneous, also in a rat.

[2] = tested on: stereotypies caused in rats by apomorphine; assay: antagonism of stereotypies caused by 1.25 mg/kg intravenous apomorphine (Arzn. Forsch. 10, 1003-1005, 1960); type: in vivo; settings: compound subcutaneous, apomorphine 1.25 mg/kg intravenous; for ED50: Rattus norvegicus, sc, read-out: ID50, apomorphine stereotypies
From the text: (2) The compound of the invention was a powerful anti-dopaminergic agent at the level of the central nervous system. Indeed, in the test in respect of stereotypies caused in rats by apomorphine, a dopaminergic agonistic agent, the compound antogonized that behavioral response at very low levels. […] […] […] The reference compound is disclosed in U.S. Pat. Nos. 4,186,135 (Example 43) and 4,248,885.

[3] = tested on: stereotypies caused in rats by apomorphine; assay: antagonism of stereotypies caused in rats by 0.5 mg/kg subcutaneous apomorphine (Europ. J. Pharmacol., 50, 291-300, 1978); type: in vivo; settings: rat
Description: (2) The compound of the invention was a powerful anti-dopaminergic agent at the level of the central nervous system. Indeed, in the test in respect of stereotypies caused in rats by apomorphine, a dopaminergic agonistic agent, the compound antogonized that behavioral response at very low levels. Thus, when stereotypies were caused by 0.5 mg/kg of subcutaneous apomorphine, the inhibitor-50 dose of the compound was 0.52 mg/kg intraperitoneally. This test was conducted in accordance with the procedure in Europ. J. Pharmacol., 50, pp. 291-300 (1978). […] The reference compound is disclosed in U.S. Pat. Nos. 4,186,135 (Example 43) and 4,248,885. In another test, the inhibitor doses 50 of the compound were evaluated according to Europ. J. Pharm. 50, pp. 291-300 (1978), the compound being administered at different times (15, 30, 60, 120 and 360 minutes) prior to administration of the agonistic agent, in this case apomorphine, in a dose of 0.5 mg/kg subcutaneous. It is thus possible to judge the power of the antagonism produced by the compound at those different times and also to evaluate the duration of the effect of the compound. […] Catalepsy appeared in fact, 11 minutes after subcutaneous injection of the compound and lasted for more than 5 hours and up to 12 hours in a rat, depending on the method of observation of the phenomenon.

vigilance = vigilance of treated animals at higher neuroleptic doses; type: in vivo; settings: higher neuroleptic doses which reduce motor function
Description: The compound of the invention has the pharmacological characteristics of a powerful neuroleptic, acting rapidly and in a long-term fashion, and, consequently, can be applied in states of agitation of acute and chronic psychoses. For this and other purposes the daily therapeutic dosage can be from about 5 to 50 mg/day in one or more doses, depending upon the severity of the psychoses. The compound of the invention can be administered in any number of conventional forms such as capsules, tablets, pills, in granulated form or as an injectable solution. Many methods for compounding these preparations are well-known to the art. Substances (or carriers) which are inert relative to the compounds of the invention can be used in these preparations, such as lactose, magnesium stearate, starch, talc, cellulose, levilite, alkali metal lauryl-sulphates, saccharose and other vehicles and carriers commonly employed in pharamaceutical preparations. The examples which follow illustrate several possible pharmaceutical preparations.

[4] = tested on: stereotypies in relation to amphetamine in a rat; assay: antagonism of amphetamine stereotypies in a rat, amphetamine injected intraperitoneally; type: in vivo; settings: read-out: ID50, amphetamine stereotypies
rat [5] = assay: cataleptigenic effect (Arz. Forsch. 12, 964-968, 1962); type: in vivo; settings: sc, subcutaneous
Description: as §1

[6] = tested on: spontaneous motility of a mouse; assay: reduction of spontaneous motility of a mouse, photoelectric method (J. Pharm. Exp. Ther. 101, 156-162, 1951); type: in vivo; settings: intraperitoneal; for ED50: ip
Description: (§2) Exp. Ther. 101, pp. 156-162 (1951).
The kinetics of the inhibitor effect of the compound were studied in mice by evaluation of the inhibitor doses 50 at different distances from intraperitoneal injection of the compound. The procedure used was the photoelectric method described in J. Pharm. Exp. Ther. 101, pp. 156-162 (1951). […] Then, the variation in the ID50 between 0.55 and 0.9 indicated persistence of the effect up to 5 hours. The effect then became less clear, but could still be observed more than 5 hours after administration, which is in accordance with the duration attributed to the cataleptigenic effect.

[7] = tested on: spontaneous motility of a mouse; assay: reduction of spontaneous motility of a mouse, Activograph Method; type: in vivo; settings: ip, intraperitoneal, read-out: ID50, reduction of spontaneous motility
From the text: as §2

[8] = molecular target: dopaminergic D2 receptors (Homo sapiens, UniProt P14416); assay: in-vitro binding to dopaminergic D2 receptors, ligand 3H-spiperone; settings: read-out: IC50, D2 receptor binding
Sequence of dopaminergic D2 receptors (P14416 whole entry): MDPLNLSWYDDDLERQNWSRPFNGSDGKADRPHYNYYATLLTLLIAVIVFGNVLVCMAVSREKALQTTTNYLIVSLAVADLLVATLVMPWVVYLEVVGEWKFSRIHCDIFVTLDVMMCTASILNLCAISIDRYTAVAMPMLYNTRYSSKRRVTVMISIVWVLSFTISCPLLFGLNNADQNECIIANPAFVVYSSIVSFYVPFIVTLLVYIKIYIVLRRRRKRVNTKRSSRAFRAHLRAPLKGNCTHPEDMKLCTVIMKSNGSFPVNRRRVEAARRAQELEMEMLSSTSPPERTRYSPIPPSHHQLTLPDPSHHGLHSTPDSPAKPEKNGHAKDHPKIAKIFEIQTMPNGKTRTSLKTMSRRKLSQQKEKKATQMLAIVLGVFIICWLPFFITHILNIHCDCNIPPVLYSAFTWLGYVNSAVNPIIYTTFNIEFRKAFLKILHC
From the text: (1) The compound bound very strongly in-vitro to dopaminergic D2 receptors.

solubility = type: physicochemical
partition coefficient = type: physicochemical
D1 receptor = D1 receptor (Homo sapiens, UniProt P21728); assay: in-vitro binding to D1 receptor against 3H-piflutixol; settings: second of two values
Sequence of D1 receptor (P21728 whole entry): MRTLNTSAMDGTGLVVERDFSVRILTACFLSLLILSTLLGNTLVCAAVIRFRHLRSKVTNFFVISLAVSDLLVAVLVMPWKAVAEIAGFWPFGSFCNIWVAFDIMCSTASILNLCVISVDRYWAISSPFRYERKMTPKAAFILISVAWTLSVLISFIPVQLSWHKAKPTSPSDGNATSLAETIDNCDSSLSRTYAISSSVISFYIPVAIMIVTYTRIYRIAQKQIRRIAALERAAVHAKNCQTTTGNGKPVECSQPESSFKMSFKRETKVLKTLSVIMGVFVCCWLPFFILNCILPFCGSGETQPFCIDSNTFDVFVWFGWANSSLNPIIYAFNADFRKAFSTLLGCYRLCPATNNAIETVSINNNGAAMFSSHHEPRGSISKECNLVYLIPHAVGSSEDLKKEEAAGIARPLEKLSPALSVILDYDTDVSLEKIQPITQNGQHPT

[9] = tested on: stereotypies caused in a rat by amphetamine; assay: antagonism of stereotypies caused in a rat by amphetamine, 10 mg/kg intravenous (Arz. Forsch. 11, 932-938, 1961); type: in vivo; settings: sc
rat [10] = assay: kinetics of the cataleptigenic effect; type: in vivo; settings: after subcutaneous injection
Description: In another test, the inhibitor doses 50 of the compound were evaluated according to Europ. J. Pharm. 50, pp. 291-300 (1978), the compound being administered at different times (15, 30, 60, 120 and 360 minutes) prior to administration of the agonistic agent, in this case apomorphine, in a dose of 0.5 mg/kg subcutaneous. It is thus possible to judge the power of the antagonism produced by the compound at those different times and also to evaluate the duration of the effect of the compound. […] Catalepsy appeared in fact, 11 minutes after subcutaneous injection of the compound and lasted for more than 5 hours and up to 12 hours in a rat, depending on the method of observation of the phenomenon.

[11] = ip, compound intraperitoneal, apomorphine 0.5 mg/kg subcutaneous, read-out: inhibitor-50 dose (ID50), apomorphine stereotypies

In the case of `CCS(=O)(=O)c1cc2c(c(C(=O)NCC3CCCN3CC3=CCCCC3)c1)OCCCO2` (stereo not shown) [compound of the invention, N-(1-cyclohexenylmethyl-2 pyrrolidylmethyl)-8-ethylsulphonyl-1,5-benzodioxepanne 6-carboxamide], the ED50 (rat [1]) is reported as 8.5 mg/kg, the ED50 [2] is reported as 0.092 mg/kg and the “ID50, apomorphine stereotypies” value ([2]; rat) is reported as 0.082 mg/kg. For the same compound, the ED50 [3, 11] was 0.52 mg/kg, the ED50 ([3]; sc, 0.25 h, compound subcutaneous 15 minutes before apomorphine 0.5 mg/kg subcutaneous, read-out: ID50, apomorphine stereotypies, 15 minutes after injection) was 0.066 mg/kg and the ED50 ([3]; sc, compound subcutaneous, apomorphine 0.5 mg/kg subcutaneous, read-out: ID50, apomorphine stereotypies) was 0.039 mg/kg. The “vigilance at higher neuroleptic doses” value (vigilance) was “retain a certain degree of vigilance”, the ED50 ([4]; ip, amphetamine intraperitoneal, other experimental conditions) was 0.4 mg/kg and the ED50 ([4]; sc, compound subcutaneous, action already found at the 12th minute) was 0.4 mg/kg. For the same compound, the ED50 (rat [5]; rat, read-out: cataleptigenic dose 50) was 5.3 mg/kg, the “time after administration at which inhibitor effect on motility could still be observed” value [6] was “more than 5 hours” and the ED50 ([6]; 5 min, 5 minutes after injection, read-out: ID50, reduction of motility after 5 minutes) was 0.69 mg/kg. The ED50 ([6]; photoelectric method, read-out: ID50, reduction of spontaneous motility) was 0.58 mg/kg, the ED50 [7] was 0.93 mg/kg and the IC50 [8] was 0.00316 µM. The “solubility in dilute acids” value (solubility; dilute acids) was “Soluble”, the “solubility in cold ethyl acetate” value (solubility; ethyl acetate, cold) was “soluble when cold in 30 volumes” and the “solubility in hot ethyl acetate” value (solubility; hot ethyl acetate (2 volumes)) was “Highly soluble”. The “solubility in hot methanol” value (solubility; hot methanol (2 volumes)) was “Highly soluble”, the “solubility in cold methanol” value (solubility; methanol, cold) was “very weakly soluble” and the logP (partition coefficient) was 0.519. For the same compound, the IC50 (D1 receptor) was 63.1 µM, the ED50 ([9]; rat, compound subcutaneous, amphetamine 10 mg/kg intravenous, read-out: inhibitor dose 50 (ID50), amphetamine stereotypies) was 0.062 mg/kg and the “time to appearance of catalepsy” value (rat [10]) was 11 min.
In the case of `CCN1CCCC1CNC(=O)c1cc(S(=O)(=O)CC)cc2c1OCCCO2` (stereo not shown) [reference compound, N-(1-ethyl-2-pyrrolidinylmethyl) 8-ethylsulphonyl-1,5-benzodioxepanne-6-carboxamide, reference compound], the ED50 [2] is reported as 156 mg/kg, the ED50 [3, 11] is reported as 36.4 mg/kg and the ED50 (rat [5]; Rattus norvegicus, which of the two catalepsy tests is not stated, read-out: ED50, cataleptigenic effect) is reported as 59.5 mg/kg. The ED50 ([9]; Rattus norvegicus, subcutaneous, amphetamine route and dose not stated, read-out: ID50, amphetamine) was 39.4 mg/kg.
